From patent US20100256357A1, “HETEROCYCLES USEFUL AS INHIBITORS OF CARBONIC ANHYDRASE” (Agouron Pharmaceuticals, Inc., priority 2006, published 2010) come the findings set out here.

pIC50: −log10 of the molar value.

T2 sequence (P22748 19-284 limits assumed): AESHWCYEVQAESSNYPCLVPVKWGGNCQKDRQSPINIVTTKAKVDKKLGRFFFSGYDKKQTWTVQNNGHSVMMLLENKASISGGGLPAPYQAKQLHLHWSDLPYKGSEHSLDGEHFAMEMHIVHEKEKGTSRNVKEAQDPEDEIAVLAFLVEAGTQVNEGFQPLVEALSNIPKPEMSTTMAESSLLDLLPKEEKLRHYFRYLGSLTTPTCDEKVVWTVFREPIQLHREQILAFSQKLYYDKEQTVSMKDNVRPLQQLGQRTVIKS

The target in one test is T1, human CA-II (Homo sapiens, UniProt P00918).
T1 construct: purchased Sigma-Aldrich C6165
As to the kind of experiment: Carbonic Anhydrase-II (CA-II) Fluorimetric Assay-IC50 Determination. The format is biochemical. Particulars: Kd ND, IC50 given instead; read-out: CA-II IC50 (where Kd is ND). On the procedure: Carbonic Anhydrase-II (CA-II) Fluorimetric Assay-IC50 Determination
Compounds were diluted in DMSO at the concentration of 1 mM, then 50 μM and transferred to a 96-well plate for further dilutions (1:3 dilution, 11 points) in duplicate. Highest final concentration of compound in this CA-II Fluorimetric assay is 1 μM. Assays were conducted in a final volume of 100 μL in 50 mM Tris/HCl (pH 7.6), 100 mM Na2SO4 and 0.005% Tween-20 in a 96-well black assay plate. Fluorescein diacetate was used as the substrate. Enzyme inhibition was determined by pipetting 8 μL of human CA-II (5 nM, from Sigma-Aldrich, product #: C6165) into assay plate contained 2 μL of compound and 2 μL of substrate (10 μM) in 88 μL of assay buffer. The rate of the hydrolysis of fluorescein diacetate were measured spectrophometrically at 488 nm (excitation), 538 nm (emission) and 530 nm (cutoff) using a Molecular Devices SpectraMax M2 fluorescence reader at 25° C.
With `NS(=O)(=O)c1ccc(-n2nc(C(=O)N3CC(Cc4ccccc4)C3)nc2Cc2ccccc2)cc1` [Example R-91, 4-{5-benzyl-3-[(3-benzylazetidin-1-yl)carbonyl]-1H-124-triazol-1-yl}benzenesulfonamide], the pIC50 is 8.50.

Still in this test, the particulars now being: at 10 nM (c7); read-out: CA-II % inhibition at concentration of column 7.
With `NS(=O)(=O)c1ccc(-n2nc(C(=O)N3CCCCC3Cc3ccccc3)nc2Cc2ccccc2)cc1` (centres unmarked) [Example R-53, 4-(5-benzyl-3-[(2-benzylpiperidin-1-yl)carbonyl]-1H-124-triazol-1-yl)benzenesulfonamide], the inhibition at 0.01 µM was 92%. For the molecule `NS(=O)(=O)c1ccc(-n2nc(C(=O)N3CCCC(c4cc[nH]n4)C3)nc2Cc2ccccc2)cc1` (centres unmarked) [Example R-67, 4-(5-benzyl-3-{[3-(1H-pyrazol-3-yl)piperidin-1-yl]carbonyl}-1H-124-triazol-1-yl)benzenesulfonamide], the inhibition at 0.01 µM came to 97%. For `NS(=O)(=O)c1ccc(-n2nc(C(=O)N3CC(CO)C(c4ccccn4)C3)nc2Cc2ccccc2)cc1` (centres unmarked) [Example R-59, 4-(5-benzyl-3-{[(3R4R)-3-(hydroxymethyl)-4-pyridin-2-ylpyrrolidin-1-yl]carbonyl}-1H-124-triazol1-yl)benzenesulfonamide], the inhibition at 0.01 µM stood at 97%.

The same test, now with this note: at 100 nM (c7); read-out: CA-II % inhibition at concentration of column 7.
As to `CCN(CCOC)C(=O)c1nc(Cc2ccccc2)n(-c2ccc(S(N)(=O)=O)cc2)n1` [Example R-34, 1-[4-(aminosulfonyl)phenyl]-5-benzyl-N-ethyl-N-(2-methoxyethyl)-1H-124-triazole-3-carboxamide], the inhibition at 0.1 µM worked out at 99%.

The same test, now with this note: given instead of Kd (ND); read-out: CA-II IC50.
For `NS(=O)(=O)c1ccc(-n2nc(C(=O)N3CCCCC3Cc3ccccc3)nc2Cc2ccccc2)cc1` (centres unmarked) [Example R-53, 4-(5-benzyl-3-[(2-benzylpiperidin-1-yl)carbonyl]-1H-124-triazol-1-yl)benzenesulfonamide], the pIC50 is 8.47. On to `CCN(CCOC)C(=O)c1nc(Cc2ccccc2)n(-c2ccc(S(N)(=O)=O)cc2)n1` [Example R-34, 1-[4-(aminosulfonyl)phenyl]-5-benzyl-N-ethyl-N-(2-methoxyethyl)-1H-124-triazole-3-carboxamide], for which the pIC50 was 8.52.

Turning to `NS(=O)(=O)c1ccc(-n2nc(C(=O)N3CCCC(c4cc[nH]n4)C3)nc2Cc2ccccc2)cc1` (centres unmarked) [Example R-67, 4-(5-benzyl-3-{[3-(1H-pyrazol-3-yl)piperidin-1-yl]carbonyl}-1H-124-triazol-1-yl)benzenesulfonamide], the pIC50 was 8.43.

The next test has as its target T2, human CA-IV (Homo sapiens, UniProt P22748).
T2 construct: made in house; host or cells: Escherichia coli BL21(DE3)
In words: Carbonic Anhydrase-IV (CA-IV) Fluorescence Polarization Assay-IC50 Determination. It counts as binding. Particulars: read-out: IC50_CAIV. Here is the method:
Carbonic Anhydrase-IV (CA-IV) Fluorescence Polarization Assay-IC50 Determination
These cells were grown in Luria broth (LB) media (Biomyx) supplemented with 800 uM ZnCl2 at 37° C. until an O.D.600 of 0.7, at which point the cells were induced with 100 uM isopropyl-beta-D-thiogalactopyranoside (IPTG) for 20 hours at 20° C. The frozen pellet was resuspended in 50mM 2-morpholinoethanesulfonic acid (MES) at pH 6.0, 100 mM NaCl, 800 uM ZnCl2 and EDTA-Free protease inhibitors (Roche). The cells were lysed with a microfluidizer, the lysate was spun at 40,000 rpm for 45 minutes at 4° C., and the soluble fraction was dialyzed overnight at 4° C. in 50 mM MES pH 6.0, and 100 mM NaCl. The soluble fraction was then put over a 100 ml SP-Sepharose High Performance (GE Healthcare) column and eluted with a 50 mM MES pH 6.0, 750 mM NaCl gradient. The peak fractions were then concentrated, via an Amicon Ultra-4 10,000 MWCO (Millipore) spin column to 2.0 mL and loaded onto a Sephacryl S-100 High Resolution (GE Healthcare) column in 25 mM tris(hydroxymethyl)aminomethane hydrochloride (Tris-HCl) pH 7.0, and 100 mM NaCl. The peak fractions were then concentrated, via an Amicon Ultra-4 10,000 MWCO (Millipore) spin column, to 7.0 mg/mL and left exposed at room temperature overnight. […] T.; et al. Carbonic Anhydrase Inhibitors. Med. Res. Rev. […]
Assays were conducted in a final volume of 100 μL in 50 mM Tris/HCl (pH 7.6), 100 mM Na2SO4 and 0.005% Tween-20 in a 96-well black assay plate.
(In general: Fluorescence polarisation rises when a labelled molecule tumbles more slowly, as on binding a larger partner.)
With `CCOC(=O)c1cc(C)n(-c2ccc(S(N)(=O)=O)cn2)n1` [mm-1, ethyl 1-[5-(aminosulfonyl)pyridin-2-yl]-5-methyl-1H-pyrazole-3-carboxylate], the pIC50 is 5.98. For `Cc1cccc(Cc2cc(CN3CCC(F)(F)C3)nn2-c2ccc(S(N)(=O)=O)cc2F)c1` [PP-1, 4-[3-[(3,3-difluoropyrrolidin-1-yl)methyl]-5-(3-methylbenzyl)-1H-pyrazol-1-yl]-3-fluorobenzenesulfonamide], the pIC50 was 6.94.

For `NS(=O)(=O)c1ccc(-n2nc(CO)cc2Cc2ccc(Br)cc2)c(F)c1` [qq-3c, 4-[5-(4-bromobenzyl)-3-(hydroxymethyl)-1H-pyrazol-1-yl]-3-fluorobenzenesulfonamide], the pIC50 is 6.33. In the case of `CCNC(=O)c1cc(C)n(-c2ccc(S(N)(=O)=O)cc2C(=O)NCc2ccccc2)n1` [KK-1h, 1-{4-(aminosulfonyl)-2-[(benzylamino)carbonyl]phenyl}-N-ethyl-5-methyl-1H-pyrazole-3-carboxamide], the pIC50 is 5.66.

On to `CCNC(=O)c1cc(C)n(-c2ccc(S(N)(=O)=O)cc2C(=O)NCC)n1` [KK-1m, 1-{4-(aminosulfonyl)-2-[(ethylamino)carbonyl]phenyl}-N-ethyl-5-methyl-1H-pyrazole-3-carboxamide], for which the pIC50 is below 5.30. For `NS(=O)(=O)c1ccc(-n2nc(CN3CC=CCC3)cc2Cc2ccccc2)cc1` [QQ-1l, 4-[5-benzyl-3-(3,6-dihydropyridin-1(2H)-ylmethyl)-1H-pyrazol-1-yl]benzenesulfonamine], the pIC50 is 6.26. On the same count and under the same terms, the figure for `CN(Cc1cc(Cc2ccccc2)n(-c2ccc(S(N)(=O)=O)cc2F)n1)C1CCCCC1` [Example -1h, 4-(5-benzyl-3-{[cyclohexyl(methyl)amino]methyl}-1H-pyrazol-1-yl)-3-fluorobenzenesulfonamide] is 6.73; for `NS(=O)(=O)c1ccc(-n2nc(C(=O)O)cc2Cc2ccc(Cl)cc2)cc1` [pp-2b, 1-[4-(aminosulfonyl)phenyl]-5-(4-chlorobenzyl]-1H-pyrazole-3-carboxylic acid] it is 6.34; for `Cc1cccc(Cc2cc(CN3CCCC(C#N)C3)nn2-c2ccc(S(N)(=O)=O)cc2F)c1` (centres unmarked) [PP-1a, 4-[3-[(3-cyanopiperidin-1-yl)methyl]-5-(3-methylbenzyl)-1H-pyrazol-1-yl]-3-fluorobenzenesulfonamide] it is 6.77. With `Cc1cc(C(=O)N2CCOCC2)nn1-c1ccc(S(N)(=O)=O)cc1CNCc1ccccc1` [LL-1a, 3-[(benzylamino)methyl]-4-(5-methyl-3-(morpholin-4-ylcarbonyl)-1H-pyrazol-1-yl]benzenesulfonamide], the pIC50 is below 5.30. The same measure, in the same setting: to `NS(=O)(=O)c1ccc(-n2nc(CO)cc2Cc2ccccc2)cc1` [qq-3b, 4-[5-benzyl-3-(hydroxymethyl)-1H-pyrazol-1-yl]benzenesulfonamide] belongs 6.36. With `NS(=O)(=O)c1ccc(-n2nc(C(F)(F)F)c3c2CCNC3)c(C(=O)NCc2ccncc2)c1` [KK-1n, 5-(aminosulfonyl)-N-(pyridin-4-ylmethyl)-2-[3-(trifluoromethyl)-4,5,6,7-tetrahydro-1H-pyrazolo[4,3-c]pyridin-1-yl]benzamide], the pIC50 was below 5.30. Take `NS(=O)(=O)c1ccc(-n2nc(CO)cc2Cc2ccccc2)c(F)c1` [qq-3, 4-[5-Benzyl-3-(hydroxymethyl)-1H-pyrazol-1-yl]-3-fluorobenzenesulfonamide]: the pIC50 was 6.43.

`CCCCN(C)Cc1cc(Cc2ccc(Cl)cc2)n(-c2ccc(S(N)(=O)=O)cc2)n1` [QQ-1n, 4-[3-{[butyl(methyl)amino]methyl}-5-(4-chlorobenzyl)-1H-pyrazol-1-yl]benzenesulfonamide]: the pIC50 was 6.34.

`CCCCN(C)Cc1cc(Cc2ccccc2)n(-c2ccc(S(N)(=O)=O)cc2F)n1` [QQ-1j, 4-(5-benzyl-3-{[butyl(methyl)amino]methyl}-1H-pyrazol-1-yl)-3-fluorobenzenesulfonamide]: the pIC50 was 6.56.

Turning to `CN(Cc1cc(Cc2ccc(Cl)cc2)n(-c2ccc(S(N)(=O)=O)cc2)n1)C1CCCCC1` [QQ-1o, 4-[5-(4-chlorobenzyl)-3-{[cyclohexyl(methyl)amino]methyl}-1H-pyrazol-1-yl]benzenesulfonamide], the pIC50 is 6.51. With `NS(=O)(=O)c1ccc(-n2nc(C(=O)O)cc2Cc2ccccc2)cc1` [pp-2a, 1-[4-(aminosulfonyl)phenyl]-5-benzyl-1H-pyrazole-3-carboxylic acid], the pIC50 was 6.31.

For `CN(CCc1ccccn1)Cc1cc(Cc2ccc(Cl)cc2)n(-c2ccc(S(N)(=O)=O)cc2)n1` [QQ-1c, 4-[5-(4-chlorobenzyl)-3-{[methyl(2-pyridin-2-ylethyl)amino]methyl}-1H-pyrazol-1-yl]benzenesulfonamide], the pIC50 is 6.42. As to `CCNCc1cc(S(N)(=O)=O)ccc1-n1nc(C(F)(F)F)c2c1CCCC2` [LL-1, 3-[(Ethylamino)methyl]-4-[3-(trifluoromethyl)-4,5,6,7-tetrahydro-1H-indazol-1-yl]-benzene-sulfonamide], the pIC50 is at most 5.30.

With `COCCN(C)Cc1cc(Cc2cccc(C)c2)n(-c2ccc(S(N)(=O)=O)cc2F)n1` [PP-1b, 3-fluoro-4-[3-{[(2-methoxyethyl)(methyl)amino]methyl}-5-(3-methylbenzyl)-1H-pyrazol-1-yl]benzenesulfonamide], the pIC50 was 6.84.

Take `NS(=O)(=O)c1ccc(-n2nc(CO)c3c2CCCC3)cc1` [qq-3d, 4-[3-(hydroxymethyl)-4,5,6,7-tetrahydro-1H-indazol-1-yl]benzenesulfonamide]: the pIC50 is at most 5.30. On to `NS(=O)(=O)c1ccc(-n2nc3c(c2CN2CCOCC2)CCCC3)cc1` [II-1c, 4-[3-(morpholin-4-ylmethyl)-4,5,6,7-tetrahydro-2H-indazol-2-yl]benzenesulfonamide], for which the pIC50 is at most 5.30. On to `C[C@@H]1CN(Cc2cc(Cc3ccccc3)n(-c3ccc(S(N)(=O)=O)cc3F)n2)C[C@H](C)O1` [QQ-1i, 4-(5-benzyl-3-{[(2R,6S)-2,6-dimethylmorpholin-4-yl]methyl}-1H-pyrazol-1-yl)-3-fluorobenzenesulfonamide], for which the pIC50 is 6.32. Same read-out and setting: the figure for `NS(=O)(=O)c1ccc(-n2nc(CN3CCOCC3)cc2Cc2ccc(Cl)cc2)cc1` [QQ-1a, 4-[5-(4-chlorobenzyl)-3-(morpholin-4-ylmethyl)-1H-pyrazol-1-yl]benzenesulfonamide] is 6.25.
